Source: patent US20180228711A1, “3-(4-HYDROXYPHENYL) PROPANOIC ACID AMIDE FOR USE IN TISSUE REPAIR AND/OR SKIN BRIGHTENING” (NMETICS IVS, priority 2015, published 2018)

Experiments:
Format in all cases: cell-based
B10F16 mouse melanocytes = experiment: skin de-pigmentation assay (cell pellet colour intensity)
Procedure: The assay was standardized using B10F16 mouse melanocytes with cell numbers at a density ranging from 5×10^4 to 1×10^5 cells per ml. […] The following day the cells were pre-treated with 80 μM of PA and 10 μM+control for 2 h, 24 h, 72 h and 96 h.
Cells were then collected, counted for cell number and equal numbers were pelleted. The cell pellet was visually observed for colour intensity and quantified. The same cell pellet was then used for protein extraction and immunoblot analysis.
Test solution preparation: Stock solutions of the test compound are prepared by dissolving in DMSO. The stock solutions were filter sterilized, stored in fridge at 4° C., and were used for experiments by dilution it in the cell culture medium as required.
Mouse melanocytes (B10F16 cell line) were maintained in Dulbecco's modified Eagle's medium (DMEM; Invitrogen) supplemented with 10% foetal bovine serum (v/v; Invitrogen), 2 mM glutamine, and 1% non-essential amino-acids.
Cells were sub-cultured at 37° C., 5% CO2 and 95% humidity, were fed approximately 16 h prior to each assay and cell number was determined in duplicates using a Coulter Z2 counter (Beckman Coulter). Mouse melanocytes were sub-cultured when they reached confluence at a split ratio 1:4.

[1] = system: fibroblasts embedded in collagen lattice; experiment: free floating collagen lattice contraction assay; settings: PA pre-treated embedded fibroblasts; two independent experiments
Procedure: Collagen type I from bovine skin can be purchased from IBFB Pharma GmbH, Leipzig, Germany and is prepared according to the distributed protocols.
Cells are trypsinized, suspended in complete growth medium and carefully mixed in the collagen solution (collagen in 0.9×DMEM, 10% FCS, 0.2 mM NaOH, prepared at room temperature). Final cell concentrations might range from 0.8×10^4 to 3×10^5 cells/ml lattice. Final concentration of collagen might range from 0.3-0.6 mg/ml lattice.
After mixing, the solution is placed onto bacteriological Petri dishes and immediately put back into the incubator.
Half an hour after polymerization in the incubator, the lattices are carefully detached from the borders of the dishes using a pipette tip. It is important that the Free Floating Collagen Lattices “swim” freely in the medium.
Measurement of the diameter is performed at different time points depending on cell type and seeded cell number. Measurement can be done using a scale paper. From the diameter the area of the collagen lattice can be calculated and their size can be compared at different time points.
Production of collagen lattices: • Estimated time for 20 lattices=1 h conduction plus 1 h until medium addition. • Per assay, 20 empty 35 mm cell culture dishes were pre-warmed to 37° C. […]

human fibroblast cells [2] = experiment: bi-directional scratch assay (cell migration); settings: fibroblasts pre-treated with PA 80 μM for three days; bidirectional scratch
Procedure: Fibroblasts were pre-treated with PA (80 μM) for three days before performing the scratch assay. Migration was quantified by a micrometer scale (see FIG. 3).
(§1) Delicate cell monolayers at confluency are mechanically disrupted leaving an area devoid of cells. This procedure is accomplished by a “scrape” made on the cells and later advancement of the adjacent cells into the open area by cell mechanical migration, which is monitored by microscopy. Depending on the cell type, the covering process can take from many hours to less than a day, which is entirely dependent on the type of cells and extent of the scrape. The rate or the extent of migration of the cells (often termed as repopulation rate) can be calculated by a series of photomicrographs.
(§2) • Plate fibroblasts at a density 1×10^4 in 35 mm tissue culture plates and incubate for three days using novel test compounds with a control at 37° C., 5% CO2. • At confluency, displace a group of cells within the monolayer by making one streak using a sterile pipette tip. • Photograph under phase contrast microscopy sequentially at an interval of 19 hrs post scraping. • Using an ocular micrometer measure the scrape size at each time point. • Evaluate statistical significance by Student's t test. • Observe significant differences in scrape repairin PA pre-treatment on fibroblasts.

fibroblast cells = experiment: Boyden chamber chemotactic migration assay; settings: PA treated vs controls; three independent assays
Procedure: 48-well Microchemotaxis Chamber Protocol
NOTE: The following directions assume that you are working with polycarbonate filters.
• 1. Adjust a variable-volume micropipette with a 1 mm tip so that the ejected liquid fills a bottom well. The well will hold 25 to 26 μL. A slight positive meniscus should form when the well is filled; this prevents air bubbles from being trapped when the filter is applied. • 2. Orient the bottom plate on a flat surface so that the NP trademark is at the upper left. Warm chemo-attractants or control reagents to about 37° C. and de-gas them by vortex or vacuum. Fill the bottom wells, completing the 48 wells in no more than 5 minutes, to prevent excessive evaporation. • 3. Cut 1 mm off the corner of a filter membrane and orient it with the cut corner at the upper left. Lift the filter by the ends with two forceps, hold it evenly over the filled wells, and lower it onto them, allowing the middle portion of the filter to make contact first. The filter position can be adjusted at this point if necessary, but note that too much movement will cause contamination between wells. • 4. Apply the silicone gasket with its cut corner at the upper left, then the top plate, aligning its NP trademark with the trademark on the bottom plate. […] With your free hand, apply and tighten the thumb nuts until finger tight.
• 1. […]

human fibroblast cells [3] = experiment: uni-directional scratch assay (cell migration); settings: fibroblasts pre-treated with PA 80 μM for three days; after 24 hrs
Procedure: Fibroblasts were pre-treated with PA (80 μM) for three days before performing the scratch assay.
as §1
as §2, with “monolayer by making one streak using a sterile pipette tip. • Photograph under phase contrast microscopy sequentially at an interval of 19 hrs post scraping. • Using an ocular micrometer” left out

SMILES	cell pellet colour, % lighter relative to −control (B10F16 mouse melanocytes; Hydroquinone at 10 μM, after 96 hrs)	colour change of cell pellet (inhibition of melanin production) (B10F16 mouse melanocytes; PA 80 μM, visual observation)	cell pellet colour, % lighter relative to −control (B10F16 mouse melanocytes; compound at 80 μM, after 96 hrs)	cell pellet colour, % lighter relative to +control (B10F16 mouse melanocytes; compound at 80 μM, after 96 hrs, relative to hydroquinone 10 μM)	improvement of collagen contraction [1]	improvement of tissue migration over the untreated (human fibroblast cells [2])	enhancement of chemotactic migration towards chemo-attractants (factor) (fibroblast cells)	enhancement of migration (tissue repair) in vitro, uni-directional cell migration (human fibroblast cells [3])
Oc1ccc(O)cc1 [+C, Hydroquinone, reference compound]	78% lighter (78% relative to −control)	–	–	–	–	–	–	–
NC(=O)CCc1ccc(O)cc1 [PA, 3-(4-hydroxyphenyl)propanoic acid amide]	–	distinct color change from dark to pale	50% lighter (relative to − control)	39% lighter (relative to +control)	85%	about 37%	2.7	more than 60%
